The results in this text go back to patent publication US11795162B2, “Modulators of the estrogen-related receptor” (Saint Louis University, priority 2017, dated 2023).

The target in this experiment is T1, ERR gamma protein (Homo sapiens, UniProt P62508).
T1 sequence (P62508 1-458): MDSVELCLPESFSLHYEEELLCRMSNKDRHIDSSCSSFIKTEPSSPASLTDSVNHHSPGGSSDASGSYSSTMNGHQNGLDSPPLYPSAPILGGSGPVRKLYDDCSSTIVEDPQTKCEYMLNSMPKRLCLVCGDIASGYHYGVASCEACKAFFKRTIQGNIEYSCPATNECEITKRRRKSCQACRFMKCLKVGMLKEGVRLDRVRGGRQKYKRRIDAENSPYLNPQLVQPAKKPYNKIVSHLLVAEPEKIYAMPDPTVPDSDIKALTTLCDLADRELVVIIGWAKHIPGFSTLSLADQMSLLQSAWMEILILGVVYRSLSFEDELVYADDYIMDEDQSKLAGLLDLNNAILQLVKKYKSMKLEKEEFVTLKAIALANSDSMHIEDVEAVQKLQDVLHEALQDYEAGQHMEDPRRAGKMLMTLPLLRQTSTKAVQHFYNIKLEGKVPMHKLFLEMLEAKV
Kind of experiment: Protein thermal shift assay. In kind it is binding. Particulars: compound at 20 μM; ERR gamma protein 0.1 mg/mL, SYPRO-Orange; read-out: T.S. (thermal shift) range. Here is the method:
Six replicate reactions were set up and run in Applied Biosystems Quantstudio 7 Real-Time PCR system. Data were collected at a ramp rate of 0.05° C./s from 24° C. through 95° C. and analyzed using Protein Thermal Shift Software 1.3.
`O=C(NCc1ccccc1)c1ccc(-c2ccc(Cl)cc2)s1` [Compound 2, N-benzyl-5-(4-chlorophenyl)thiophene-2-carboxamide]: the ΔTm at 20 µM is 2 to 4 °C.
The result for `Clc1ccc(-c2ccc(CNCc3ccccc3)s2)cc1` [Compound 3, N-benzyl-1-(5-(4-chlorophenyl)thiophen-2-yl)methanamine] reads 0 to 2 °C; that for `CC(C)c1ccc(-c2ccc(COc3ccccc3)s2)cc1` [Compound 4, 2-(4-isopropylphenyl)-5-(phenoxymethyl)thiophene], 0 to 2 °C.
With `CC(C)c1ccc(NC(=O)c2cc(-c3ccc(O)cc3)[nH]n2)cc1` [Compound 5, 3-(4-hydroxyphenyl)-N-(4-isopropylphenyl)-1H-pyrazole-5-carboxamide] the figure was 2 to 4 °C; with `CC(C)c1cccc(-c2ccc(C(=O)Nc3ccc(O)cc3)s2)c1` [Compound 6, N-(4-hydroxyphenyl)-5-(3-isopropylphenyl)thiophene-2-carboxamide], 0 to 2 °C.
With `O=C(Nc1cccc(F)c1)c1ccc(-c2ccc(O)cc2)s1` [Compound 7, N-(3-fluorophenyl)-5-(4-hydroxyphenyl)thiophene-2-carboxamide] the figure was over 4 °C.
With `O=C(Nc1ccc(O)cc1)c1coc(-c2ccsc2)n1` [Compound 10, N-(4-hydroxyphenyl)-2-(thiophen-3-yl)oxazole-4-carboxamide], the ΔTm at 20 µM was in the range of 0 to 2 °C.
With `O=C(Nc1cccc(F)c1)c1ncc(-c2ccc(O)cc2)s1` [Compound 11, N-(3-fluorophenyl)-5-(4-hydroxyphenyl)thiazole-2-carboxamide] the figure was over 4 °C.
The result for `O=C(Nc1ccccc1F)c1ccc(-c2ccc(C(=O)C(F)(F)F)cc2)s1` [Compound 12, N-(2-fluorophenyl)-5-(4-(2,2,2-trifluoroacetyl)phenyl)thiophene-2-carboxamide] reads 0 to 2 °C; that for `CC(C)c1ccc(-c2ccc(C(=O)Nc3ccc(O)cc3)s2)cc1` [Compound 13], 0 to 2 °C; that for `O=C(Nc1ccc(F)cc1)c1ccc(-c2ccc(B(O)O)cc2)s1` [Compound 17], 2 to 4 °C.
With `COc1ccc(NC(=O)c2ccc(-c3ccc(N)cc3)s2)cc1` [Compound 18] the figure was 0 to 2 °C; with `Cc1cccc(NC(=O)c2ccc(-c3ccc(O)cc3)s2)c1` [Compound 19], 0 to 2 °C.
For the molecule `O=C(Nc1cccc(F)c1)c1ncc(-c2cccc(O)c2)s1` [Compound 21], the ΔTm at 20 µM was over 4 °C.
With `N#Cc1ccc(NC(=O)c2ccc(-c3cccc(O)c3)s2)cc1` [Compound 22], the ΔTm at 20 µM was 0 to 2 °C.
As for `COc1ccc(NC(=O)c2ccc(-c3ccc(O)cc3)s2)cc1` [Compound 29], the ΔTm at 20 µM lay in the range of 0 to 2 °C.
With `O=C(Nc1ccc2ccccc2c1)c1ccc(-c2ccc(O)cc2)s1` [Compound 31] the figure was 0 to 2 °C.
Consider `Nc1ccc(-c2ccc(C(=O)NCc3cccc(F)c3)o2)cc1` [Compound 36], for which the ΔTm at 20 µM fell in the range of 0 to 2 °C.
Regarding `O=C(Nc1ccc2ncsc2c1)c1ccc(-c2ccc(O)cc2)o1` [Compound 41], the ΔTm at 20 µM was 2 to 4 °C.
With `O=C(Nc1ccc2ncsc2c1)c1ccc(-c2cccc(O)c2)o1` [Compound 42] the figure was 0 to 2 °C.
The result for `O=C(Nc1cccc(B(O)O)c1)c1ccc(-c2ccccc2F)s1` [Compound 44] reads 2 to 4 °C.
As to `O=C(O)c1ccc(-c2ccc(C(=O)Nc3ccc(F)cc3)s2)cc1` [Compound 48], the ΔTm at 20 µM was 0 to 2 °C.
As for `O=C(NC1CCCCC1)c1ccc(-c2ccc(O)cc2)s1` [Compound 49], the ΔTm at 20 µM was in the range of 2 to 4 °C.
With `CCOc1ccc(NC(=O)c2ccc(-c3cccc(N)c3)s2)cc1` [Compound 51] the figure was over 4 °C; with `CCOc1ccc(NC(=O)c2ccc(-c3cccc(O)c3)s2)cc1` [Compound 52], 2 to 4 °C; with `O=C(Nc1ccc2ccccc2c1)c1ccc(-c2cccc(O)c2)s1` [Compound 53], over 4 °C.
With `Nc1cccc(-c2ccc(C(=O)Nc3ccc4ccccc4c3)s2)c1` [Compound 54] the figure was 2 to 4 °C; with `O=C(Nc1cccc(B(O)O)c1)c1ccc(-c2ccsc2)s1` [Compound 57], over 4 °C.
The result for `O=C(Nc1cccc(F)c1)c1ccc(-c2cnc(O)nc2)s1` [Compound 58] reads 0 to 2 °C.
Take `O=C(Nc1ccccc1F)c1ccc(-c2cccc(B(O)O)c2)s1` [Compound 59]: the ΔTm at 20 µM is 0 to 2 °C.
The result for `O=C(Nc1cccc(F)c1)c1ccc(-c2ccc(O)c(C(F)(F)F)c2)s1` [Compound 61] reads over 4 °C; that for `O=C(Nc1ccccc1F)c1ccc(-c2cccc(O)c2)s1` [Compound 63], 0 to 2 °C; that for `O=C(Nc1cccc(F)c1)c1ccc(-c2ccc3[nH]ccc3c2)s1` [Compound 66], 2 to 4 °C.
The result for `O=C(Nc1ccc(C(F)(F)F)cc1)c1ccc(-c2ccc(O)cc2)s1` [Compound 68] reads 0 to 2 °C.
The result for `O=C(Nc1ccc(C(F)(F)F)cc1)c1ccc(-c2ccncc2)s1` [Compound 69] reads 0 to 2 °C.
Regarding `O=C(Nc1cccc(C(F)(F)F)c1)c1ccc(-c2ccncc2)s1` [Compound 70], the ΔTm at 20 µM was in the range of 0 to 2 °C.
With `O=C(Nc1cccc(C(F)(F)F)c1)c1ccc(-c2ccc(O)cc2)s1` [Compound 71] the figure was 0 to 2 °C.
For the molecule `COc1ccc(NC(=O)c2ccc(-c3ccsc3)s2)cc1` [Compound 73], the ΔTm at 20 µM was in the range of 0 to 2 °C.
In the case of `COc1cc(NC(=O)c2ccc(-c3ccc(Cl)cc3)s2)cc(OC)c1` [Compound 75], the ΔTm at 20 µM lay within 0 to 2 °C.
`CC(C)Cc1ccc(-c2ccc(C(=O)Nc3ccc(Cl)cc3)s2)cc1` [Compound 76]: the ΔTm at 20 µM fell in the range of 0 to 2 °C.
With `CC(C)Cc1ccc(-c2ccc(C(=O)Nc3cccnc3)s2)cc1` [Compound 77] the figure was 0 to 2 °C; with `CC(C)Cc1ccc(-c2ccc(C(=O)Nc3ccncc3)s2)cc1` [Compound 78], 2 to 4 °C.
For the molecule `CC(C)Cc1ccc(-c2ccc(C(=O)Nc3ccc(O)cc3)s2)cc1` [Compound 79], the ΔTm at 20 µM was 2 to 4 °C.
With `Cc1ccc(-c2ccc(C(=O)Nc3ccc(Cl)cc3)s2)cc1C` [Compound 80] the figure was 0 to 2 °C; with `Cc1ccc(-c2ccc(C(=O)Nc3cccnc3)s2)cc1C` [Compound 81], 0 to 2 °C.
With `Cc1ccc(-c2ccc(C(=O)Nc3ccncc3)s2)cc1C` [Compound 82] the figure was 0 to 2 °C; with `Cc1ccc(-c2ccc(C(=O)Nc3ccc(O)cc3)s2)cc1C` [Compound 83], 0 to 2 °C.
The result for `O=C(Nc1ccc(Cl)cc1)c1ccc(-c2ccccc2F)s1` [Compound 84] reads 2 to 4 °C.
In the case of `O=C(Nc1cccnc1)c1ccc(-c2ccccc2F)s1` [Compound 85], the ΔTm at 20 µM lay in the range of 0 to 2 °C.
As to `O=C(Nc1ccncc1)c1ccc(-c2ccccc2F)s1` [Compound 86], the ΔTm at 20 µM fell in the range of 0 to 2 °C.
With `O=C(Nc1cccnc1)c1ccc(-c2cccc(F)c2)s1` [Compound 89] the figure was 0 to 2 °C; with `O=C(Nc1ccncc1)c1ccc(-c2cccc(F)c2)s1` [Compound 90], 2 to 4 °C.
With `O=C(Nc1ccc(Cl)cc1)c1ccc(-c2ccc(F)cc2)s1` [Compound 92] the figure was 0 to 2 °C; with `O=C(Nc1cccnc1)c1ccc(-c2ccc(F)cc2)s1` [Compound 93], 0 to 2 °C; with `O=C(Nc1ccncc1)c1ccc(-c2ccc(F)cc2)s1` [Compound 94], 0 to 2 °C.
The result for `N#Cc1cccc(-c2ccc(C(=O)Nc3ccc(Cl)cc3)s2)c1` [Compound 96] reads 0 to 2 °C; that for `N#Cc1cccc(-c2ccc(C(=O)Nc3cccnc3)s2)c1` [Compound 97], 0 to 2 °C.
As to `N#Cc1cccc(-c2ccc(C(=O)Nc3ccc(O)cc3)s2)c1` [Compound 98], the ΔTm at 20 µM lay in the range of 2 to 4 °C.
With `N#Cc1ccc(-c2ccc(C(=O)Nc3ccc(Cl)cc3)s2)cc1` [Compound 99] the figure was 0 to 2 °C; with `N#Cc1ccc(-c2ccc(C(=O)Nc3cccnc3)s2)cc1` [Compound 100], 0 to 2 °C.
The result for `N#Cc1ccc(-c2ccc(C(=O)Nc3ccncc3)s2)cc1` [Compound 101] reads 0 to 2 °C.
With `N#Cc1ccc(-c2ccc(C(=O)Nc3ccc(O)cc3)s2)cc1` [Compound 102] the figure was 2 to 4 °C; with `O=C(Nc1cccnc1)c1ccc(-c2ccsc2)s1` [Compound 103], 0 to 2 °C; with `O=C(Nc1cccnc1)c1ccc(-c2ccc3ccccc3c2)s1` [Compound 106], 2 to 4 °C.
Regarding `O=C(Nc1ccc(Cl)cc1)c1ccc(-c2cccc(C(F)(F)F)c2)s1` [Compound 107], the ΔTm at 20 µM was 0 to 2 °C.
In the case of `O=C(Nc1cccnc1)c1ccc(-c2cccc(C(F)(F)F)c2)s1` [Compound 108], the ΔTm at 20 µM was in the range of 0 to 2 °C.
With `O=C(Nc1ccncc1)c1ccc(-c2cccc(C(F)(F)F)c2)s1` [Compound 109] the figure was 2 to 4 °C; with `O=C(Nc1ccc(O)cc1)c1ccc(-c2cccc(C(F)(F)F)c2)s1` [Compound 110], 2 to 4 °C.
With `O=C(Nc1ccc(Cl)cc1)c1ccc(-c2ccc(C(F)(F)F)cc2)s1` [Compound 111] the figure was 0 to 2 °C.
Take `O=C(Nc1cccnc1)c1ccc(-c2ccc(C(F)(F)F)cc2)s1` [Compound 112]: the ΔTm at 20 µM is 0 to 2 °C.
